For 8 compounds, IC50 results are on record in BindingDB's records for doi:10.1021/acsmedchemlett.0c00015 (The Genomics Institute of The Novartis Research Foundation, 2020).

Experiment [1] in a line: Inhibition of CCDC6/RET (unknown origin) transfected in human LC2/ad cells assessed as reduction in cell viability incubated for 6 days by CellTiter Glo assay.
A short description of experiment [2]: Inhibition of TEL/KDR (unknown origin) transfected in mouse Ba/F3 cells assessed as reduction in cell viability incubated for 48 hrs by brightglo-luciferase reporter gene assay.
The nature of experiment [3]: Inhibition of KIF5B-RET (unknown origin) transfected in mouse Ba/F3 cells assessed as reduction in cell viability incubated for 48 hrs by brightglo-luciferase reporter gene assay.

In the case of `COc1ccc(-c2cnn3c(N)c(-c4ccccc4)c(OC4CCNCC4)nc23)cc1OC`, the IC50 in experiment [1] is 160 nM; in experiment [2], 3600 nM; in experiment [3] it was 79 nM.

As to `COc1ccc(-c2cnn3c(N)c(-c4ccccc4)c(OCCCN(C)C)nc23)cc1OC`, the 50% inhibitory concentration (IC50) stood at 3000 nM in experiment [2] and 70 nM in experiment [3].

As for `COc1ccc(-c2cnn3c(N)c(-c4ccccc4)c(NC4CCN(C)CC4)nc23)cc1OC`, the values for the IC50 in experiment [1], in experiment [2] and in experiment [3] were 56 nM, 3100 nM and 31 nM, respectively.

Turning to `COc1ccc(-c2cnn3c(N)c(-c4ccccc4)c(NCCCN(C)C)nc23)cc1OC`, the IC50 in experiment [2] is more than 7900 nM; in experiment [3] it was 56 nM.

Regarding `COc1ccc(-c2cnn3c(N)c(-c4ccccc4)c(NC4CC(C)(C)N(C)C(C)(C)C4)nc23)cc1OC`, the IC50 came to 5.3 nM in experiment [1], 990 nM in experiment [2] and 1.7 nM in experiment [3].

In the case of `CN1C(C)(C)CC(Nc2nc3c(-c4ccc(C(=O)N5C[C@@H]6C[C@H]5CO6)cc4)cnn3c(N)c2-c2ccccc2)CC1(C)C`, the half-maximal inhibitory concentration (IC50) in experiment [1] is 16 nM; in experiment [2], 1300 nM; in experiment [3] it was 5.4 nM.

On to `COC(=O)N1CCN(C(=O)c2ccc(-c3cnn4c(N)c(-c5ccccc5)c(NC5CC(C)(C)N(C)C(C)(C)C5)nc34)cc2)CC1`, for which the figures for the IC50 in experiment [1], in experiment [2] and in experiment [3] were 15 nM, 890 nM and 3.3 nM, respectively.

`CN1C(C)(C)CC(Nc2nc3c(-c4ccc(C(=O)N5CCN(S(C)(=O)=O)CC5)cc4)cnn3c(N)c2-c2ccccc2)CC1(C)C`: the values for the IC50 in experiment [1], in experiment [2] and in experiment [3] were 6.2 nM, 1100 nM and 6.3 nM, respectively.
